From article PMC11643690, “Chelating Properties of N6O-Donors Toward Cu(II) Ions: Speciation in Aqueous Environments and Catalytic Activity of the Dinuclear Complexes” (Molecules, 2024) come the findings set out here.

“Also recorded” adds a separate entry of the source.

Assay [1] is described as follows: ESI-MS(+) competition with equimolar Cu, Fe, Mn, Zn perchlorates. It counts as binding. The settings on record: half an equivalent of ligand. The protocol:
Equimolar solutions of Cu(ClO4)2, Fe(ClO4)2, Mn(ClO4)2, and Zn(ClO4)2 were prepared, and half an equivalent of HL-CH3 was added. The composition of the solution was then analyzed with ESI-MS to determine which species were formed. […] The most intense signal is the cluster at m/z = 855, referring to the species [Cu2(L-CH3)(ClO4)2]^+. Other signals are at m/z = 801 for [Cu2(L-CH3)(COO)(ClO4)]^+ and m/z = 351 for [Cu2(L-CH3)(ClO4)]^2+.

A short description of assay [2]: UV–Vis titration of ligands with Cu(ClO4)2, binding constant by non-linear regression. The settings on record: difference of stability constants. On the procedure:
To determine the overall equilibrium constant β1,2 (Kbind), a solution of the ligand was titrated with aliquots of 0.2 equivalents of Cu(II). Monitoring the formation of the complex via UV–Vis spectroscopy, the absorbance around 260 nm, 300 nm, 450 nm, and 700 nm increased during the titration (Figure 3a) in all cases. The latter two bands are visible only at high concentrations (>0.1 mM). These changes are caused by the formation of the complex and the disappearance of the free ligand.
In Figure 3b, the linear increase in the absorbance change (ΔAbs) at 240 nm, upon an increase in Cu(II) amount, is evident, leading to a sharp plateau around 2 equivalents. […] The binding constants were determined by non-linear regression analysis of Equation (2), (2) ∆A/b=(K1∆A1Cu+ β1,2∆A2Cu^2)/1+K1Cu+ β1,2Cu^2 which traces the correlation “ΔAbs/b vs. Cu(II) concentration,” according to K. Connors. In this equation, ΔA is the differences in absorbance at a certain wavelength, b is the optical path (1 cm), K1 is the constant for the formation of the complex 1:1, and β1,2 is the global formation constant (Kbind) for the complex 1:2. ΔA1 and ΔA2 are the differences in absorbance due to the formation of the 1:1 complex and the 1:2 complex, respectively. […]
(§1) UV-vis spectra of ligands and complexes were recorded in a quartz cuvette, with 1 cm of optical path. […]

Assay [3] in a line: UV–Vis titration of HL-CH3 with Mn(ClO4)2, binding constant. As to conditions: Mn(II); 0.1 mM ligand, 5% v/v MeOH/BBS 50 mM, pH 7.4. The protocol:
(§2) To evaluate the selectivity of these ligands towards copper, the same titrations were performed with different metal salts: Fe(ClO4)2, Mn(ClO4)2, and Zn(ClO4)2, monitoring the methyl-substituted ligand (Figures S39–S41). These metal ions were chosen because they are also divalent and common in biological matrixes.
(§3) For the determination of the binding constant between metals and ligands, a solution of the latter was titrated with 0.2 eq of metal for each addition. The titrating solutions were 10 mM and 100 μM for Cu(ClO4)2 versus 0.1 mM and 1 μM for the ligands in 5% v/v MeOH/BBS (50 mM, pH 7.4), respectively. […] The absorbance variation was monitored from 200 nm to 800 nm at 25 °C. […]
as §1
(§4) The titrating solutions were 10 mM and 100 μM for Cu(ClO4)2 versus 0.1 mM and 1 μM for the ligands in 5% v/v MeOH/BBS (50 mM, pH 7.4), respectively. […] The absorbance variation was monitored from 200 nm to 800 nm with a Varian Cary 50 instrument, thermostated at 25 °C.
(§5) The binding constants were then determined by nonlinear regression analysis of the plot “ΔAbs/b vs Cu(II) concentration” (Equation 7 ), according to K. Connors, The Measurement of Molecular Complex Stability, Madison, Wisconsin, Wiley, 1987[5]. […]
(§6) ΔA: absorbance at a certain wavelength. […]

Assay [4] can be described thus: UV–Vis titration of HL-CH3 with Fe(ClO4)2, binding constant. The settings on record: Fe(II); 0.1 mM ligand, 5% v/v MeOH/BBS 50 mM, pH 7.4. On the procedure: as §2, §3, §1, §4, §5, §6

As for `Cc1cc(CN(Cc2ccccn2)Cc2ccccn2)c(O)c(CN(Cc2ccccn2)Cc2ccccn2)c1` [HL-CH3, 2,6-bis[(bis(2-pyridylmethyl)amino)methyl]-4-methylphenol], the “species formed in ESI-MS(+) spectrum” value in assay [1] is “only ascribable to the copper complex”. Besides, the “binding preference for copper ions over Mn2+, Fe2+, Zn2+” value in assay [2] is given as “almost three orders of magnitude; also recorded: approximately three orders of magnitude higher”. Moreover, the results for the Kbind in assay [3] and in assay [4] were 6.12 × 10^7 M^−2 and 1.09 × 10^8 M^−2, respectively. In addition, the “log(Kbind)” value amounted to 7.78 in assay [3] and 8.03 in assay [4].
